The text below walks through data of US4060652A (priority 1976, dated 1977).

Like-named read-outs stand apart in the source and are kept apart here.

The subject of data set [1] is rabbits. The experiment in a line: Head-drop test in non-narcotized rabbits. In kind it is in vivo. The procedure:
In experiments (a total of twenty) on non-narcotized rabbits, the head-drop dose (HDD) was 0.022 ± 0.009 micromole/kg A complete blocking effect developed 1.5 to 2 minutes after administration of Tercuronium and persisted for 3 to 5 minutes. A few minutes later, the animal behaviour normalized. The same effect was attained with 0.18 ± 0.02 micromole/kg of α-tubocurarin (6 experiments) and 0.018 ± 0.001 mcM/kg of pancuronium (6 experiments). The time of onset and the duration of the blocking effect with all the three preparations were the same.

The test system of data set [2] is nervomuscular conduction, ganglia, circulation. Particulars: cited from earlier work.
Data set [3] deals with nervomuscular conduction, vegetative ganglia, circulation. The experiment in a line: Overall conclusions from animal experiments. The format is in vivo, animals. From the text:
The results of the pharmacological studies of the proposed muscle relaxant Tercuronium, as compared with the known muscle relaxants, enable us to make the following conclusions.

In data set [4] the test system is arterial pressure. The experiment in a line: Effect on arterial pressure in cats and rabbits. In kind it is in vivo. The procedure: Experiments were carried out on narcotized cats and rabbits (50 mg/kg of chloralose and 500 mg/kg urethane, intraperitoneally) and also on cats decerebrated at the quadrigeminal level. The blood pressure in the carotid artery was recorded with a mercury pressure gauge. The preparations were injected intravenously.
When Tercuronium was given in a quantity ten times exceeding the myoparalytic dose (0.8 mcM/kg) an insignificant and transient reduction (10 to 20 mm Hg) of the blood pressure was observed. The animals (7 cats and 5 rabbits) tolerated injections of very large doses of Tercuronium, viz., 10-20 mcM/kg, which is 200 times higher than the myoparalytic dose. […] In all experiments, in 1 to 2 hours, the arterial pressure restored completely or was close to the initial level.

Data set [5] relates to nervomuscular conduction, anterior tibial muscle. The experiment in a line: Nervomuscular block in cats, indirect stimulation of anterior tibial muscle. In kind it is in vivo. The procedure: The preparation was studied in acute experiments on cats, rabbits, mice and pigeons, in experiments on phrenico-diaphragm preparations of rats, and also on the straight muscle of a frog abdomen. The properties of Tercuronium were compared with those of α-tubocurarin and pancuronium.
(§1) Cats were narcotized (with chloralose, 50 mg per kg body weight, and urethane, 500 mg/kg, intraperitoneally) or decerebrated at the quadrigeminal bodies level. The lungs were ventilated artificially whenever necessary. Contractions of the anterior tibial muscle were recorded in isotonic concitions in response to electric stimulation of the peripheral part of n. peroneus with supramaximum pulses of 0.1 msec at a frequency of 0.1-100 Hz.

Data set [6] concerns respiration. Nature of the data set: Inhibition of respiration in narcotized and decerebrated cats (and rabbits). The format is in vivo. From the text:
This developed simultaneously with the block of the nervomuscular conduction in the anterior tibial muscle. […] The same result was obtained in experiments on rabbits. The ratio of LD50 in experiments on rabbits and mice, as specified above, also provides data on the that Tercuronium produces on respiration.

Data set [7] in a line: Lethality by paralysis of respiratory muscles in rabbits. The conditions noted are these: rabbit, in vivo. From the text:
In another series of experiments, we determined the intravenous dose of the muscle relaxants that caused death of 50% of the animals due to paralysis of the respiratory muscles -- lethal dose 50% (LD50).

Data set [8] in a line: Lethality by paralysis of respiratory muscles in mice. Particulars: mouse, in vivo, iv. From the text: (§2) In experiments on albino mice, the dose of Tercuronium injected into the tail vein, that inhibited the symptom of turning from the lateral position in 50 percent of mice (ED50) was 0.06 mcM/kg (18 experiments); and 50 percent of mice perished from paralysis of the respiratory muscles (LD50) following an injection of 0.09 mcM/kg of Tercuronium.

A short description of data set [9]: Effect on sympathetic ganglia, third eyelid contraction in cats. The format is in vivo. The conditions noted are these: cat, in vivo, iv, read-out: ganglioblocking dose as multiple of myoparalytic dose. The procedure: Experiments were carried out on narcotized cats. A peripheral part of the sympathetic column on the neck was stimulated with electric pulses at 5 Hz. The duration of the stimulus was 1 msec, the amplitude 5 V. The contractions of the third eyelid (nictiating membrane) and the arterial (carotid) pressure were recorded with a mercury pressure gauge. We determined the intravenous dose of Tercuronium, α-tubocurarin and pancuronium that decreased the height of contraction of the third eyelid by 50 to 60 percent in conditions of prolonged stimulation of the sympathetic column.

The test system of data set [10] is albino mice. Nature of the data set: Inhibition of turning from the lateral position in mice. In kind it is in vivo. The conditions noted are these: Mus musculus, iv; mice, turning from the lateral position; read-out: ED50.
Excerpt: as §2

The test system of data set [11] is nervomuscular conduction, anterior tibial muscle. The experiment in a line: Neostigmin antagonism of nervomuscular block in cats. The format is in vivo. The procedure:
as §1
For example, even with a 5-fold dose of tercuronium, muscle contractility was restored already in 2 to 5 minutes following a single injection of neostigmin in a dose of 0.1 mg/kg, and in 15-20 minutes the recovery of the contactile function was complete.
In the case of pancuronium and α-tubocurarin, the restoration within these short periods of time could only be attained with 2-3 fold doses of these muscle relaxants. If the dose of pancuronium was increased 4 to 5 times, weak contractions of the muscle were observed not sooner than in 9 to 10 minutes and the contraction was, restored completely only 30 minutes after the injection of neostigmin (six experiments). The restoration of muscle contractility is delayed even longer in the case of α-tubocurarin.

The term LD50 denotes the dose at which mortality reaches 50%. Read a low LD50 as greater toxicity. By ED50 is commonly meant the midpoint of the dose-response relation.

Take `CC(=O)O[C@H]1C[C@@H]2CC[C@@H]3[C@H](CC[C@@]4(C)[C@H]3C[C@H]([N+]3(C)CCCCC3)[C@@H]4OC(C)=O)[C@@]2(C)C[C@@H]1[N+]1(C)CCCCC1` [pancuronium, reference compound]: in data set [1] (Oryctolagus cuniculus, non-narcotized rabbits, read-out: head-drop dose (HDD)), the ED (head drop) worked out at 0.018 ± 0.001 µmol/kg. Also, the “time of onset and duration of blocking effect, comparison” value in [1] (all three preparations) is “the same”. The “conditions for tracheal intubation” value in [2] (0.15 mg/kg) is “favourable conditions for tracheal intubation are provided”. Further, in data set [2] (background), the “duration of myoparalytic action” value is “lasts for the same period of time as that of α-tubocurarin”. In data set [2] (background), the “fold less active than α-tubocurarin in blocking conduction in sympathetic ganglia” value is 2.5 times. Also, the “histamine release, ganglia and circulatory effects” value in data set [2] (background) is “often accelerates the pulse rate and increases arterial pressure”; in [2] (background, listed as Pancuronium), “does not induce production of histamine from tissues, nor does it lower arterial pressure”. For the same compound, in [2] (background), the “removal of myoparalytic action by proserpin” value is “can be removed with proserpin, and cases with difficult decurarization occur less frequently than with α-tubocurarin”. Besides, the “arterial pressure and pulse rate” value in data set [3] (in vivo) was “stable rise in the arterial pressure, which results in increased hemorrhage in surgical operations and in accelerated pulse rate”. Further, the “histamine, vegetative ganglia, blood pressure and heart frequency” value in data set [3] (myoparalytic dose) is “do not produce histamine or block vegetative ganglia”. Besides, the “effect on arterial pressure of 20-fold dose” value in data set [4] (20-fold dose) is “moderately depressive”. Moreover, in [4] (active ventilation of the lungs), the “arterial pressure on doses that inhibit respiration” value is “asphyxial rise in the arterial pressure”. Besides, the “effect on arterial pressure of myoparalytic (complete block) dose” value in [4] (artificial ventilation) was “the arterial pressure did not drop either”. Also, the “mean duration of effect” value in data set [5] was “nine”. Also, the ED (95-100) in data set [5] (Felis catus, intravenous, 0.1 Hz, read-out: dose blocking nervomuscular conduction (95-100 percent)) is 0.04 ± 0.001 µmol/kg. Moreover, the “inhibition of respiration by blocking doses, comparison” value in data set [6] (from LD50 to ED50 ratio) was “equally inhibit respiration”. Besides, in data set [6] (narcotized and decerebrated cats), the effect on respiration entry is reported as “The same effect was observed”. The LD50 in [7] (intravenous) is 0.026 µmol/kg; in data set [8], 0.062 µmol/kg. For the same compound, the selectivity ratio in data set [7] (read-out: LD50 to HDD ratio) amounted to 1.4; in [8] (read-out: width of the muscle relaxing action (LD50/ED50)), 1.5; in data set [9] it was 30. Besides, in data set [10], the median effective dose (ED50) is 0.042 µmol/kg. Also, the “multiple of dose at which restoration within the short periods could be attained” value in data set [11] (cats, neostigmin) is 2-3 fold. In addition, in [11] (dose increased 4 to 5 times, six experiments), the “time to complete restoration of contraction after neostigmin” value was determined as 30 min. Moreover, the “number of myoparalytic doses whose blocking effect is completely removed by neostigmin” value in data set [11] (neostigmin 0.1 mg/kg intravenous, within five minutes) is “three”.

Take `CC[N+](CC)(CC)CCOc1cccc(OCC[N+](CC)(CC)CC)c1OCC[N+](CC)(CC)CC` [pyrolaxon]: in [2] (background), the “histamine release, ganglia and circulatory effects” value is “blocks parasympathetic ganglia and produces tachycardia”.

Consider `C[N+](C)(C)CCOC(=O)CCC(=O)OCC[N+](C)(C)C` [succinylcholine, dicholine ester of succinic acid], for which the “duration of action in patients with hepatic dysfunction and low cholinesterase” value in data set [2] (common dose) is “can last for a period of a few hours”.
